Legend:
[1] = system: ABUTH: velvetleaf (Abutilon theophrasti); assay: Post-Emergent Test I herbicidal activity; type: in vivo; conditions: Abutilon theophrasti, post-emergence, 336 h, read-out: Visual Growth Reduction (%)-14 Days after Application ABUTH; for pest or weed control at 140 g/ha: Table 3, 140 g ai/ha; for pest or weed control at 70 g/ha: Table 3, 70 g ai/ha; for pest or weed control at 280 g/ha: Table 3, 280 g ai/ha
Summary of the method: (§1)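 Greenhouse plants at first-second true leaf stage sprayed post-emergence by track sprayer at 187 L/ha with compound in acetone/DMSO/water/isopropanol carrier with crop oil concentrate and Triton X-155, top rate plus ½× to 1/16× serial rates. Injury scored visually at 14 d, 0-100% versus untreated plants; GR20, GR50, GR80 from probit analysis.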

[2] = system: CHEAL: lambsquarters (Chenopodium album); assay: Post-Emergent Test I herbicidal activity; type: in vivo; conditions: Chenopodium album, post-emergence, 336 h, read-out: Visual Growth Reduction (%)-14 Days after Application CHEAL; for pest or weed control at 140 g/ha: Table 3, 140 g ai/ha; for pest or weed control at 70 g/ha: Table 3, 70 g ai/ha; for pest or weed control at 280 g/ha: Table 3, 280 g ai/ha
Summary of the method: as §1

[3] = system: CYPES: yellow nutsedge (Cyperus esculentus); assay: Post-Emergent Test I herbicidal activity; type: in vivo; conditions: post-emergence, 336 h, read-out: Visual Growth Reduction (%)-14 Days after Application CYPES; for pest or weed control at 140 g/ha: Table 3, 140 g ai/ha; for pest or weed control at 70 g/ha: Table 3, 70 g ai/ha; for pest or weed control at 280 g/ha: Table 3, 280 g ai/ha
Summary of the method: as §1

[4] = system: ECHCG: barnyardgrass (Echinochloa crus-galli); assay: Post-Emergent Test I herbicidal activity; type: in vivo; conditions: post-emergence, 336 h, read-out: Visual Growth Reduction (%)-14 Days after Application ECHCG; for pest or weed control at 140 g/ha: Table 3, 140 g ai/ha; for pest or weed control at 70 g/ha: Table 3, 70 g ai/ha; for pest or weed control at 280 g/ha: Table 3, 280 g ai/ha
Summary of the method: (§2)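 Plants grown in greenhouse to first/second true leaf. Compound formulated in acetone:DMSO 97:3 then diluted into crop-oil/surfactant aqueous mix; serial twofold rates. Sprayed at 187 L/ha, 43 cm above canopy; solvent-blank controls. Scored visually at 14 d; probit fit for GR values.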

[5] = system: EPHHL: wild poinsettia (Euphorbia heterophylla); assay: Post-Emergent Test I herbicidal activity; type: in vivo; conditions: post-emergence, 336 h, read-out: Visual Growth Reduction (%)-14 Days after Application EPHHL; for pest or weed control at 140 g/ha: Table 3, 140 g ai/ha; for pest or weed control at 70 g/ha: Table 3, 70 g ai/ha; for pest or weed control at 280 g/ha: Table 3, 280 g ai/ha
Summary of the method: as §1

[6] = system: ORYSA: rice (Oryza sativa); assay: Post-Emergent Test I herbicidal activity; type: in vivo; conditions: post-emergence, 336 h, read-out: Visual Growth Reduction (%)-14 Days after Application ORYSA; for pest or weed control at 140 g/ha: Table 3, 140 g ai/ha; for pest or weed control at 70 g/ha: Table 3, 70 g ai/ha; for pest or weed control at 280 g/ha: Table 3, 280 g ai/ha
Summary of the method: as §2

[7] = system: ZEAMX: corn (Zea mays); assay: Post-Emergent Test I herbicidal activity; type: in vivo; conditions: Zea mays, post-emergence, 336 h, read-out: Visual Growth Reduction (%)-14 Days after Application ZEAMX; for pest or weed control at 140 g/ha: Table 3, 140 g ai/ha; for pest or weed control at 70 g/ha: Table 3, 70 g ai/ha; for pest or weed control at 280 g/ha: Table 3, 280 g ai/ha
Summary of the method: as §1

Row | SMILES | pest or weed control at 140 g/ha [1] [%] | pest or weed control at 140 g/ha [2] [%] | pest or weed control at 140 g/ha [3] [%] | pest or weed control at 140 g/ha [4] [%] | pest or weed control at 140 g/ha [5] [%] | pest or weed control at 140 g/ha [6] [%] | pest or weed control at 140 g/ha [7] [%] | melting point [°C] | other results
1 | COC(=O)c1nc(-c2ccc(Cl)c(OC)c2F)c(F)c(N)c1SC [Compound 94, Methyl 4-amino-6-(4-chloro-2-fluoro-3-methoxyphenyl)-5-fluoro-3-(methylthio)picolinate] | 60 | 85 | 0 | 0 | 65 | 0 | 0 | 113 to 117 | 
2 | COC(=O)c1nc(-c2cc(F)c(I)cc2F)c(F)c(N)c1OC [Compound 25] | 70 | 90 | 100 | 85 | 100 | 0 | 70 | 127 to 129 | 
3 | COC(=O)c1nc(-c2cc(F)c(Cl)cc2F)c(F)c(N)c1OC [Compound 39] |  |  |  |  |  |  |  | 120 to 123 | pest or weed control at 70 g/ha [1]: 80%; pest or weed control at 70 g/ha [2]: 100%; pest or weed control at 70 g/ha [3]: 100%; pest or weed control at 70 g/ha [4]: 80%; pest or weed control at 70 g/ha [5]: 100%; pest or weed control at 70 g/ha [6]: 0%; pest or weed control at 70 g/ha [7]: 75%
4 | COc1c(C(=O)O)nc(-c2ccc(Cl)c(F)c2F)c(F)c1N [Compound 48] | 90 | 100 | 100 | 90 | 100 | 0 | 80 | 151 | 
5 | COC(=O)c1nc(-c2ccc(Cl)c(OC)c2F)cc(N)c1OC [Compound 5, methyl 4-amino-6-(4-chloro-2-fluoro-3-methoxyphenyl)-3-methoxypicolinate] |  |  |  |  |  |  |  | 114 to 118 | pest or weed control at 70 g/ha [1]: 100%; pest or weed control at 70 g/ha [2]: 100%; pest or weed control at 70 g/ha [3]: 20%; pest or weed control at 70 g/ha [4]: 80%; pest or weed control at 70 g/ha [5]: 100%; pest or weed control at 70 g/ha [6]: 0%; pest or weed control at 70 g/ha [7]: 60%
6 | CCc1nc(C(=O)OC)c(OC)c(N)c1F [Compound 13, methyl 4-amino-6-ethyl-5-fluoro-3-methoxypicolinate] |  |  |  |  |  |  |  | 110.5 to 113 | pest or weed control at 280 g/ha [1]: 0%; pest or weed control at 280 g/ha [2]: 90%; pest or weed control at 280 g/ha [3]: 0%; pest or weed control at 280 g/ha [4]: 0%; pest or weed control at 280 g/ha [5]: 70%; pest or weed control at 280 g/ha [6]: 0%; pest or weed control at 280 g/ha [7]: 0%
7 | COC(=O)c1nc(-c2ccc(Cl)cc2)cc(N(C)C)c1N [Compound 87, Methyl 3-amino-6-(4-chlorophenyl)-4-(dimethylamino)picolinate] | 90 | 90 | 90 | 40 | 100 | 0 | 0 | 153 to 154 | 
8 | COc1c(C(=O)O)nc(-c2cc(F)c(Cl)cc2F)c(F)c1N [Compound 57] |  |  |  |  |  |  |  | 153.5 to 155 | pest or weed control at 70 g/ha [1]: 85%; pest or weed control at 70 g/ha [2]: 100%; pest or weed control at 70 g/ha [3]: 70%; pest or weed control at 70 g/ha [4]: 90%; pest or weed control at 70 g/ha [5]: 100%; pest or weed control at 70 g/ha [6]: 0%; pest or weed control at 70 g/ha [7]: 75%
9 | COc1c(C(=O)O)nc(-c2ccc(I)cc2F)c(F)c1N [Compound 62] | 15 | 100 | 50 | 100 | 100 | 8 | 75 | 143 to 145 | 
10 | CSc1c(C(=O)O)nc(-c2ccc(Cl)c(F)c2)c(F)c1N [Compound 72] | 80 | 100 | 90 | 0 | 100 | 30 | 60 | 168 to 170 | 
11 | CCOC(=O)c1nc(-c2ccc(Cl)c(OC)c2F)cc(N)c1SC [Compound 88, Ethyl 4-amino-6-(4-chloro-2-fluoro-3-methoxyphenyl)-3-(methylthio)picolinate] | 100 | 100 | 60 | 100 | 100 | 0 | 80 | 93 to 94 | 
12 | COc1c(Cl)ccc(-c2cc(N)c(OC(F)F)c(C(=O)O)n2)c1F [Compound 64] |  |  |  |  |  |  |  | 169 to 171 | pest or weed control at 280 g/ha [1]: 50%; pest or weed control at 280 g/ha [2]: 85%; pest or weed control at 280 g/ha [3]: 0%; pest or weed control at 280 g/ha [4]: 0%; pest or weed control at 280 g/ha [5]: 95%; pest or weed control at 280 g/ha [6]: 0%; pest or weed control at 280 g/ha [7]: 10%
13 | COC(=O)c1nc(Cl)c(F)c(N)c1SC [Compound 74, Methyl 4-amino-6-chloro-5-fluoro-3-(methylthio)picolinate] | 0 | 0 | 0 | 0 | 0 | 0 | 0 | 75 to 77 | 
14 | COC(=O)c1nc(Cl)c(Cl)c(N)c1OC [Compound 2, methyl 4-amino-5,6-dichloro-3-methoxypicolinate] |  |  |  |  |  |  |  | 119 to 121 | pest or weed control at 280 g/ha [1]: 90%; pest or weed control at 280 g/ha [2]: 90%; pest or weed control at 280 g/ha [3]: 0%; pest or weed control at 280 g/ha [4]: 0%; pest or weed control at 280 g/ha [5]: 95%; pest or weed control at 280 g/ha [6]: 0%; pest or weed control at 280 g/ha [7]: 0%

— patent US9518018B2, “3-alkoxy, thioalkyl and amino-4-amino-6-(substituted)picolinates and their use as herbicides” (Dow AgroSciences LLC, priority 2011, dated 2016)
